According to patent US9556201B2, “Bicyclic pyridines and analogs as sirtuin modulators” (GLAXOSMITHKLINE LLC, priority 2009, dated 2017):

What was measured:
SIRT1 = target: T1, SIRT1 (Homo sapiens, UniProt Q96EB6); experiment: Mass spectrometry based assay to identify modulators of SIRT1 activity (deacetylation of p53-based acetylated peptide substrate); type: biochemical; settings: SIRT1 activation; for Emax: 25 min, read-out: % FOLD ACT. (percent maximum fold activation)
T1 sequence (Q96EB6 1-747): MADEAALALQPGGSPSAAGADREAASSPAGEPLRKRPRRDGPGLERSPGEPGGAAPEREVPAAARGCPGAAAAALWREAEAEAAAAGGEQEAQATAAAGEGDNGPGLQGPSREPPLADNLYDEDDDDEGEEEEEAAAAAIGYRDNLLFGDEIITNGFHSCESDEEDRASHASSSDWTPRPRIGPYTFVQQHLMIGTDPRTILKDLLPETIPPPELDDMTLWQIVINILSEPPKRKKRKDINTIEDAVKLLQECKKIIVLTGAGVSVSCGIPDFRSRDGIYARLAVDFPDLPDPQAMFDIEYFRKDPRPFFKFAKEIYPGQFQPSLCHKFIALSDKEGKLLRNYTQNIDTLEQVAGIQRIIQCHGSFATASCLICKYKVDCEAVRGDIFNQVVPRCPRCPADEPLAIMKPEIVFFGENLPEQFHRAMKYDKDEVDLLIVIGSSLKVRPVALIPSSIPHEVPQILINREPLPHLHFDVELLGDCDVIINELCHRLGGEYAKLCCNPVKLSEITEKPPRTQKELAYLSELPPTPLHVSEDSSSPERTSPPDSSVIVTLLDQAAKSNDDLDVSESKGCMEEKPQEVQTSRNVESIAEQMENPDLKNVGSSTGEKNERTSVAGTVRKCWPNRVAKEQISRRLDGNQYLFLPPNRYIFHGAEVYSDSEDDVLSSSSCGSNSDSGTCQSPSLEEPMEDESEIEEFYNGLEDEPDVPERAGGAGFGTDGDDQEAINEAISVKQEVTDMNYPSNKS
In short: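 Deacetylation of a modified p53 acetyl-lysine peptide ([…], 5TMR-labelled, Nle for Met) by 10 nM N-His SIRT1 with 120 μM βNAD+, pH 8, 25 min, 25 °C. Substrate and product masses measured by MS after formic acid quench; nicotinamide defines maximal inhibition.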

TNF = TNF IC50 (column of Table 1; method not shown); type: cell-based

| Emax (SIRT1) [%] | EC1.5 (SIRT1) | IC50 (TNF) [µM] | SMILES |
| --- | --- | --- | --- |
| > 200 | A (EC1.5<1.0 μM) | < 20 | Cc1cc(NC(=O)N2CCCOc3ccc(-c4cccc(Cl)c4)nc32)ccn1 [Compound 613] |
| > 200 | A (EC1.5<1.0 μM) | ≥ 20 | Cc1cc(NC(=O)N2CCCOc3ccc(-c4cccc(N5CCCC5)c4)nc32)ccn1 [Compound 614] |
| > 200 | A (EC1.5<1.0 μM) | < 20 | Cc1cc(NC(=O)N2CCCOc3ccc(-c4cccc(N5CCCC5)c4)nc32)cc(C)n1 [Compound 615] |
| > 200 | A (EC1.5<1.0 μM) | ≥ 20 | Cc1csc(NC(=O)N2CCCc3ccc(-c4cccc(Cl)c4)nc32)n1 [Compound 616] |
| > 200 | A (EC1.5<1.0 μM) | < 20 | O=C(Nc1ccnc(N2CCC2)c1)N1CCCc2ccc(-c3cccc(Cl)c3)nc21 [Compound 617] |
| > 200 | A (EC1.5<1.0 μM) | ≥ 20 | Cc1cc(NC(=O)N2CCOc3ccc(-c4cccc(N5CCCC5)c4)nc32)cc(C)n1 [Compound 618] |
| > 200 | A (EC1.5<1.0 μM) | < 20 | Cc1cc(NC(=O)N2CCOc3ccc(-c4cccc(N(C)C)c4)nc32)cc(C)n1 [Compound 619] |
| > 200 | A (EC1.5<1.0 μM) | < 20 | Cc1csc(NC(=O)N2CCCc3ccc(-c4cccc(F)c4)nc32)n1 [Compound 620] |
| > 200 | A (EC1.5<1.0 μM) | ≥ 20 | Cc1csc(NC(=O)N2CC(C)(C)Oc3ccc(-c4cccc(F)c4)nc32)n1 [Compound 622] |
| > 200 | A (EC1.5<1.0 μM) | ≥ 20 | CN(C)c1cccc(-c2ccc3c(n2)N(C(=O)Nc2cncc(F)c2)CC(C)(C)O3)c1 [Compound 623] |
| > 200 | A (EC1.5<1.0 μM) | < 20 | Cc1csc(NC(=O)N2CC(C)(C)Oc3ccc(-c4cccc(N(C)C)c4)nc32)n1 [Compound 624] |
| > 200 | A (EC1.5<1.0 μM) | < 20 | Cc1cc(NC(=O)N2CCCOc3ccc(-c4cccc(Cl)c4)nc32)cc(C)n1 [Compound 626] |
| > 200 | A (EC1.5<1.0 μM) | ≥ 20 | Cc1cc(NC(=O)N2CCOc3ccc(-c4cccc(C#N)c4)nc32)cc(C)n1 [Compound 631] |
| > 200 | A (EC1.5<1.0 μM) | < 20 | O=C(Nc1cncc(OCC(O)CO)n1)N1CCCc2ccc(-c3cccc(C(F)(F)F)c3)nc21 (stereo not drawn) [Compound 638] |
| > 200 | A (EC1.5<1.0 μM) | < 20 | O=C(Nc1ccnc(OCC(O)CO)n1)N1CCCc2ccc(-c3cccc(C(F)(F)F)c3)nc21 (stereo not drawn) [Compound 639] |
| > 200 | A (EC1.5<1.0 μM) | < 20 | Cc1cncc(NC(=O)N2CCOc3ccc(-c4cccc(N5CCCC5)c4)nc32)c1 [Compound 644] |
| > 200 | A (EC1.5<1.0 μM) | < 20 | O=C(Nc1ccncc1)N1CCCc2ccc(-c3cccc(C(F)(F)F)c3)nc21 [Compound 645] |
| > 200 | A (EC1.5<1.0 μM) | < 20 | O=C(Nc1ccccn1)N1CCCc2ccc(-c3cccc(C(F)(F)F)c3)nc21 [Compound 646] |
| > 200 | A (EC1.5<1.0 μM) | ≥ 20 | Cc1cc(C)nc(NC(=O)N2CCCc3ccc(-c4cccc(C(F)(F)F)c4)nc32)c1 [Compound 647] |
| > 200 | A (EC1.5<1.0 μM) | ≥ 20 | O=C(Nc1cccnc1)N1CCCc2ccc(-c3cccc(Cl)c3)nc21 [Compound 653] |
| > 200 | A (EC1.5<1.0 μM) | ≥ 20 | Cc1cc(C)nc(NC(=O)N2CCCc3ccc(-c4cccc(Cl)c4)nc32)c1 [Compound 654] |
